Row | melting point [°C] | SMILES
1 | 202 to 204 | O=c1[nH]c2ccc(S(=O)CCN3CCC(Cc4ccc(F)cc4)CC3)cc2o1 (centres undefined)
2 | 299 to 301 | Cc1nnc(-n2cc(C(=O)N3CCCC3)c3c4cc(F)ccc4n(C)c3c2=O)s1
3 | 102 to 103 | Cc1csc(N2CCN(Cc3ccc(C(F)(F)F)cc3)C2=O)n1
4 | 113 to 114 | O=C1CN2Cc3ccc(OCCCC(=O)N(CCO)CCCCC4CCCCC4)cc3N=C2N1
5 | 171 to 173 | COc1cc2c(cc1Cl)C(=O)Cc1ccccc1S2
6 | 212 to 214 | COc1cc(N)c(Cl)cc1C(=O)NC1CCN(CC2CCN(C(=O)Nc3ccccc3)CC2)CC1
7 | 88 to 90 | O=C(Nc1cc(C(F)(F)F)cc(C(F)(F)F)c1)C1C(=O)C2CCC(C2)C1=O (centres undefined)
8 | 289 to 290 | Cc1cc2oc(C(=O)O)cc(=O)c2c(C)c1Cl
9 | 121 | CN(C)C(=O)C=C(c1ccc(-c2ccccc2)cc1)c1ccc(-c2ccccc2)cc1
10 | 56 to 60 | Clc1cccc(CC[C@H]2CN(Cc3ccccc3)CCN2Cc2ccccc2)c1
11 | 191 to 192 | O=C(Nc1c(C(O)(C(F)(F)F)C(F)(F)F)ccc2ccccc12)c1cccs1
12 | 210 to 212 | CC(C)n1nc(-c2c(NCc3ccccn3)nc(N)nc2-c2ccc(F)cc2)ccc1=O
13 | 196 | CC(=O)NC(c1ccc(F)cc1)(c1cc2c3c(c1)c(-c1cccc(Cl)c1)cc(=O)n3CC2)c1nncn1C (centres undefined)
14 | 194 to 195 | COc1ccc(C=C(C#N)C(N)=O)c([N+](=O)[O-])c1OC
15 | 227 to 228 | COc1cccc2c1c(N1CCOCC1)nc1c(-c3noc(C4CC4)n3)ncn12
16 | 135 to 136 | Cc1nc(N2C[C@@H](C)N(Cc3ccc(F)cc3)C2=O)sc1C(=O)NCc1cccnc1
17 | 112 to 117 | CCN(CC)S(=O)(=O)c1ccc(C=CC(C)(O)C(F)(F)F)cc1 (centres undefined)
18 | 167 to 168 | COc1ccc2sc(Nc3ccc(OCCN4CCCC4)cc3)nc2c1
19 | 40 | COC(=O)C1OC(CC(C)C)(c2ccc(Cl)cc2)OC1C(=O)OC (centres undefined)
20 | 263 to 266 | O=C1NC(=S)SC1=Cc1ccc2c(c1)N(CCc1ccc(F)c(F)c1)C(=O)CO2
21 | 237 to 238 | Cc1cc2[nH]c(C)nc(NCCN3CCOCC3)c-2n1
22 | 72 to 73 | O=C(NCCOCCO)C12CC3CC(CC(C3)C1)C2
23 | 79 to 80 | CCOC(=O)c1cn(-c2ccccn2)nc1C
24 | 285 to 290 | CC(C)N1CC(=O)C(C#N)=C1N

Row | melting point [°C] | SMILES
25 | 164 | Nc1nc(S(=O)(=O)Cl)nn1C(=O)Oc1ccccc1
26 | 120 to 122 | CCOc1cccc(-c2ccc(C3=CCN(S(=O)(=O)CC(=O)OC)CC3)cc2)c1
27 | 110 to 112 | N#Cc1cccnc1N1CCc2ccccc2CC1
28 | 139 to 140 | Cc1cc(N2CCN(c3ccccc3)CC2)c(C#N)c(Cl)n1
29 | 127 to 133 | O=C(/C=C/c1cccc([N+](=O)[O-])c1)N1CCN(C(=O)c2cc(C(F)(F)F)cc(C(F)(F)F)c2)[C@H](Cc2c[nH]c3ccccc23)C1
30 | 77 to 83 | COc1cc(OC)nc(Oc2ccc3ccccc3c2C(=O)OCC=NOCC=CCl)n1
31 | 161 | CCOc1c(SC(F)(F)F)c(C(N)=O)nn1-c1c(Cl)cc(C(F)(F)F)cc1Cl
32 | 135 to 137 | C=CCC1C(=O)N(c2ccccc2)N(c2ccccc2)C1=O
33 | 155 to 157 | CC(C)S(=O)(=O)NCC(C)(F)c1ccc(-c2ccc(CC#N)cc2)cc1 (centres undefined)
34 | 158 to 161 | C[C@H](O)C#Cc1cc(CN2CCOCC2)cc2c(=O)c(C(=O)NCc3ccc(Cl)cc3)cn(C)c12
35 | 169 to 172 | CCc1c(CC(=O)NCCCCCCNC(=O)Cc2ccc(OC)c(OC)c2CC)ccc(OC)c1OC
36 | 70 to 73 | Cc1ccc(C(C)(C)C)c(SC2=C(O)CC(CCc3ccccc3)(c3ccc(OCCO)cc3)OC2=O)c1 (centres undefined)
37 | 136 to 138 | COc1cc(=O)n(-c2cccc(C(F)(F)F)c2)nc1C(C)=O
38 | 188 to 192 | CCOC(=O)c1cnc(N(CC)Cc2ccc3nc(C)[nH]c(=O)c3c2)s1
39 | 129 to 131 | COc1cccc2c1CC(CC(=O)O)C(=O)C2 (centres undefined)
40 | 30 to 31 | CCOc1ccc(OC)cc1
41 | 158 | CC(C(=O)NC1Cc2ccccc2CC1O)c1ccccc1 (centres undefined)
42 | 221 to 223 | O=C(Nc1ccc(C(=O)N2CC(C(=O)O)Cc3ccccc32)cc1)c1cc(Cl)cc(Cl)c1 (centres undefined)
43 | 150 to 151 | O=C(CCCCCBr)c1c[nH]c2ccccc12
44 | 156 to 157 | Cc1csc2nc(CO)cn12
45 | 187 to 189 | Cc1cccc(C(CCC(=O)O)Oc2cc(OCc3cccnc3)ccc2C#N)c1C (racemic)
46 | 150 to 152 | CC1(C(F)(F)F)CC(=O)CC(=O)C1
47 | 192 to 194 | ON=Cc1cc(-c2ccc(O)cc2)c2occc2c1
48 | 99 to 101 | CCCCCCCCCCCCCCCCCCOC1=CC(OCCCOc2ccc(C(C)(C)C)cc2)(N(CC(=O)O)CC(=O)O)CC=C1 (centres undefined)

Row | melting point [°C] | SMILES
49 | 54 to 58 | COC(=O)c1ccc(OC)c(C(C)=O)c1
50 | 231 to 234 | CCc1ccc(C=CC(=O)NN2CC(=O)NC2=O)cc1Cl
51 | > 250 | Nc1c2c(nc3ccccc13)CCc1cn(N)nc1-2
52 | 45 to 48 | CC1(C)CC(N2CCN(Cc3ccccc3)C2=O)c2cc(C#N)ccc2O1 (centres undefined)
53 | 220 | CCC(C)CNc1nc2ccc(Sc3nnc4n3N=C(c3ccc(F)cc3)CC4)cc2s1 (centres undefined)
54 | 283 to 285 | Cc1ccc2c(c1)C(=O)c1nc3ccccc3c(=O)n1-2
55 | 223 to 226 | O=C(O)C1=Cc2ccccc2NC1
56 | 89 to 90.5 | Cc1cccc(CC2CNC(=O)O2)c1 (centres undefined)
57 | 206 | O=Cc1c(O)cccc1OCc1ccc(-c2nnn[nH]2)cc1
58 | 191 to 193 | Cc1ccc(-c2c(NS(=O)(=O)c3ccc(C(C)(C)C)cc3)ncnc2OCCOc2ncc(C=O)cn2)cc1
59 | 156 to 158 | O=[N+]([O-])c1cc(CO)cc([N+](=O)[O-])c1-c1ccc(O)cc1
60 | 98 to 99 | CCCc1c(OCCCCCOc2ccccc2OCC(=O)O)ccc2c1OCCC2=O
61 | 138 to 140 | Cc1nc(-c2ccc(-c3ccc(C(=O)Nc4ccc(Br)c(OCCN(C)C)c4)cc3)c(C)c2)no1
62 | 97 to 98 | O=[N+]([O-])c1cccc(Cn2ccnc2)c1
63 | 220 to 222 | c1ccc(-c2ccc3c4c([nH]c3c2)CCNCC4)cc1
64 | 97 to 99.4 | COCCc1ccc(-c2ccc(I)cc2)cc1
65 | 112 to 113 | Cc1c(CO)oc2ccc(Cl)cc12
66 | 129 to 130 | c1nc(-c2ccc(CN3CCCCCC3)s2)n[nH]1
67 | 91 to 92.5 | COc1ccc2c(c1)C(=O)C(Cc1ccncc1)CO2 (centres undefined)
68 | 150 to 154 | CN(C)c1ccc(C2OCCN2CCNc2ccc(NCCN3CCOC3c3ccc(N(C)C)cc3)c3c2C(=O)c2c(O)ccc(O)c2C3=O)cc1 (centres undefined)
69 | 114 to 116 | CC(C)(C)OC(=O)N1CCC(C#N)(CCl)CC1
70 | 152 to 154 | COc1cc2ccn(C(=O)c3ccc(-c4ccccc4)c(C)c3)c2cc1OCCN(C)C
71 | 133 | CC(CN1CCCC1)N1c2ccccc2Sc2ccc(C(=O)NCC3CCC3)cc21 (racemic)
72 | 85 to 87 | Cc1cc(Br)cnc1CCCCNc1ncc(Cc2cccnc2)cc1N

Row | melting point [°C] | SMILES
73 | 98 to 101 | CCCCOc1cc(CNCCCN2CCCCC2)cc(S(N)(=O)=O)c1Cc1ccccc1
74 | 172 | CCOc1cccc(NCCSCc2[nH]cnc2C)n1
75 | 155 to 157 | COc1cc(C2=CCCCC2)c(Cl)cc1C(=O)N1Cc2ccc(C(=O)N(C)CC(O)CO)n2Cc2ccccc21 (centres undefined)
76 | 104 | CCOC(=O)c1c(C(C)Cl)nc2c(C(F)(F)F)cccc2c1O (centres undefined)
77 | 227 to 229 | CCC(C)C(NC(=O)OC)C(=O)NN(Cc1ccc(-c2nccs2)cc1)CC(O)C(Cc1ccccc1)NC(=O)C(NC(=O)OC)C(C)C (centres undefined)
78 | 121 to 122 | Cc1ccc(S(=O)(=O)Nc2ccc(SC#N)cc2[N+](=O)[O-])cc1
79 | 206 to 211 | N#Cc1ccc(N(Cc2ccc(OCc3ccccc3)cc2)n2cnnc2)cc1
80 | 188 to 189 | CC(C)(C)n1cc(-c2ccc(I)cc2)c2c(N)ncnc21
81 | 35 | CC(=O)OC1(C)CCCCC1C1CCCCC1 (centres undefined)
82 | 129 to 131 | Cc1cccc(C)c1N(CCCC(=O)O)C(=O)CCCN(C(=O)c1ccc(Cl)cc1)c1c(C)cccc1C
83 | 163 to 165 | CCOc1c(C)c(N2CCN(c3ccc(F)cc3)CC2)c(C)c2c1OC(C)(C)C2
84 | 108 to 111 | CC(C(=O)O)c1ccc(CC2CCCC2=O)cc1 (centres undefined)
85 | 193 to 195 | Cc1cc(NC(=O)C(CS)CC(C)C)cc(C(=O)O)c1 (centres undefined)
86 | 178 to 179 | Cn1c(C(F)(F)F)cc(=O)n(-c2cc(OCS(C)=O)c(Cl)cc2F)c1=O (centres undefined)
87 | 82 to 84 | CCOC(=O)CCCC(CNC(=O)OC(C)(C)C)c1ccccc1 (centres undefined)
88 | 161 to 164 | CCNS(=O)(=O)Cc1ccc(N)cc1
89 | 161 to 163 | CCCCCC(CNC(=O)Nc1c(C(C)C)cccc1C(C)C)c1cccc2c1OCO2 (centres undefined)
90 | 101 | COc1ccc(-c2cc(C)nc3ccccc23)cc1
91 | 145 to 146 | O=C1NC(SCC#CCc2ccccc2)C1NC(c1ccccc1)(c1ccccc1)c1ccccc1 (centres undefined)
92 | 195 to 197 | O=C(O)c1cc(CN2C(=O)C3(COc4cc5c(cc43)OCO5)c3ccccc32)oc1C(F)(F)F (centres undefined)
93 | 68 to 71 | CCOC(=O)Cc1ccc2c(c1)C(=O)c1cc(Cl)ccc1CS2
94 | 201 to 207 | COc1cc2cc3c(Nc4ccc(Sc5nccn5C)c(Cl)c4)c(C#N)cnc3cc2cc1OCCn1ccnn1
95 | 225 to 226 | COc1ccccc1Oc1c(NS(=O)(=O)c2ccc(C)cn2)nc(-c2ccncc2)nc1OC

Row | SMILES | melting point [°C]
96 | COc1ccc2[nH]c(C3CCC(c4ccccc4)(N(C)C)CC3)c(C)c2c1 (centres undefined) | 156 to 163
97 | C#CCN1C(=O)N(c2ccc(C#N)c(C(F)(F)F)c2)C(=O)C1(CO)CO | 125 to 126
98 | c1ccn(NC2=NCCN2)c1 | 183 to 184
99 | CCCCC1(N(C)C)CCC(c2[nH]c3ccccc3c2CCC)CC1 (centres undefined) | 127 to 130

— a melting point compilation (Tetko et al.; mined from patent text by program, amines drawn as free bases though some values may be those of a salt)
